Experimental data taken from the kinase profiling compilation of Christmann-Franck et al. (2016).

Legend:
Experiment in all cases: radiometric filter-binding kinase assay, Kinase HotSpot
Details in all cases: compound 0.5 µM; ATP 10 µM
ADRBK2 (human) = ADRBK2 (human) (UniProt P35626)
AURKA (human) = AURKA (human) (UniProt O14965)
BTK (human) = BTK (human) (UniProt Q06187)
CAMK4 (human) = CAMK4 (human) (UniProt Q16566)
CDK5 CDK5R1 p35 (human) = CDK5 CDK5R1 p35 (human) (UniProt Q00535+Q15078)
CHUK (human) = CHUK (human) (UniProt O15111)
CSK (human) = CSK (human) (UniProt P41240)
DAPK3 (human) = DAPK3 (human) (UniProt O43293)
EPHB4 (human) = EPHB4 (human) (UniProt P54760)
GRK5 (human) = GRK5 (human) (UniProt P34947)
GSG2 (human) = GSG2 (human) (UniProt Q8TF76)
HIPK1 (human) = HIPK1 (human) (UniProt Q86Z02)
INSRR (human) = INSRR (human) (UniProt P14616)
ITK (human) = ITK (human) (UniProt Q08881)
[1] = target: JAK1 JH1 catalytic (human) (UniProt P23458)
MAP2K2 (human) = MAP2K2 (human) (UniProt P36507)
MAP3K9 (human) = MAP3K9 (human) (UniProt P80192)
MAPK1 (human) = MAPK1 (human) (UniProt P28482)
MAPK11 (human) = MAPK11 (human) (UniProt Q15759)
MAPKAPK5 (human) = MAPKAPK5 (human) (UniProt Q8IW41)
MATK (human) = MATK (human) (UniProt P42679)
NEK11 (human) = NEK11 (human) (UniProt Q8NG66)
NEK3 (human) = NEK3 (human) (UniProt P51956)
NEK4 (human) = NEK4 (human) (UniProt P51957)
NEK6 (human) = NEK6 (human) (UniProt Q9HC98)
NEK9 (human) = NEK9 (human) (UniProt Q8TD19)
PAK2 (human) = PAK2 (human) (UniProt Q13177)
PDGFRA (human) = PDGFRA (human) (UniProt P16234)
PKN1 (human) = PKN1 (human) (UniProt Q16512)
PRKCE (human) = PRKCE (human) (UniProt Q02156)
PRKG2 (human) = PRKG2 (human) (UniProt Q13237)
RPS6KA5 KD2 (human) = RPS6KA5 KD2 (human) (UniProt O75582)
SIK2 (human) = SIK2 (human) (UniProt Q9H0K1)
SRPK1 (human) = SRPK1 (human) (UniProt Q96SB4)
TEC (human) = TEC (human) (UniProt P42680)
TNK2 (human) = TNK2 (human) (UniProt Q07912)
TSSK2 (human) = TSSK2 (human) (UniProt Q96PF2)
[2] = target: TYK2 JH1 catalytic (human) (UniProt P29597)
VRK1 (human) = VRK1 (human) (UniProt Q99986)
WEE1 (human) = WEE1 (human) (UniProt P30291)
YES1 (human) = YES1 (human) (UniProt P07947)
PDGFRB (human) = PDGFRB (human) (UniProt P09619)

NEK11 (human), sequence (Q8NG66 whole entry, looked up): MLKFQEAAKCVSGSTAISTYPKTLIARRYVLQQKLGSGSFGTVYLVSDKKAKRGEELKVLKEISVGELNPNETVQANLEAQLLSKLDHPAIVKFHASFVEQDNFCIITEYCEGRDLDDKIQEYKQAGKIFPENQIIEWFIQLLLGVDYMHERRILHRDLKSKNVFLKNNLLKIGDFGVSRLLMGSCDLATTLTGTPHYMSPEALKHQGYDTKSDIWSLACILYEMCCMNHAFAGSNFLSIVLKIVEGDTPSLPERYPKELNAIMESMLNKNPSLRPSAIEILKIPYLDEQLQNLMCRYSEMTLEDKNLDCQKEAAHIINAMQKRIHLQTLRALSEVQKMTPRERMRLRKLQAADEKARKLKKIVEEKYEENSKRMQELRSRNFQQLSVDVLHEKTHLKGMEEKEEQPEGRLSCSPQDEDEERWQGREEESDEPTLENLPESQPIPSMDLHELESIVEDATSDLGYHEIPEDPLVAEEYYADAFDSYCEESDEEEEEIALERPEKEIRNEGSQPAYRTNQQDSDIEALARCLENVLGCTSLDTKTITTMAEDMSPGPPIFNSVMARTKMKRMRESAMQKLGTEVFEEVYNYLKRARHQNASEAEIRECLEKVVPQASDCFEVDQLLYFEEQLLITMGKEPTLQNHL
AURKA (human), sequence (O14965 whole entry, looked up): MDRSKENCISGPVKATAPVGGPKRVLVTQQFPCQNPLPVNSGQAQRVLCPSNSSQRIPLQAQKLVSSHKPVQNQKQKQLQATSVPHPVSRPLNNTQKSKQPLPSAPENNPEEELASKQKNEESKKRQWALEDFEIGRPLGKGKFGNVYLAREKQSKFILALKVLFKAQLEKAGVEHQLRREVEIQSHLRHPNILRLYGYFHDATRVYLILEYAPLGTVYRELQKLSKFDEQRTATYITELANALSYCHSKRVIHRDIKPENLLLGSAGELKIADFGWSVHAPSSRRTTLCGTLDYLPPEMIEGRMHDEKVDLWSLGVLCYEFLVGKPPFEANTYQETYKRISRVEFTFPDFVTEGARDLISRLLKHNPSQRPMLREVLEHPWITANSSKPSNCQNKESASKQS
VRK1 (human), sequence (Q99986 whole entry, looked up): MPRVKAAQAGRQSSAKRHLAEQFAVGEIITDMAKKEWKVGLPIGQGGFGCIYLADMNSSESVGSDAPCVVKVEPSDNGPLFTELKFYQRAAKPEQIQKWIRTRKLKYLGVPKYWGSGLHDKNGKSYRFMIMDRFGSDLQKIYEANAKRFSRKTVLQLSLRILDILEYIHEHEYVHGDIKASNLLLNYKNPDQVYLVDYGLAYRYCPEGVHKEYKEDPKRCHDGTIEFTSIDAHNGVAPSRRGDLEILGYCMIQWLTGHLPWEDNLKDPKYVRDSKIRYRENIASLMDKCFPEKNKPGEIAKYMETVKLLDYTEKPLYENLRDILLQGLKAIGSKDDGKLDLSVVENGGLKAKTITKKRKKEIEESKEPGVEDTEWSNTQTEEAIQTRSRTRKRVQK
TNK2 (human), sequence (Q07912 whole entry, looked up): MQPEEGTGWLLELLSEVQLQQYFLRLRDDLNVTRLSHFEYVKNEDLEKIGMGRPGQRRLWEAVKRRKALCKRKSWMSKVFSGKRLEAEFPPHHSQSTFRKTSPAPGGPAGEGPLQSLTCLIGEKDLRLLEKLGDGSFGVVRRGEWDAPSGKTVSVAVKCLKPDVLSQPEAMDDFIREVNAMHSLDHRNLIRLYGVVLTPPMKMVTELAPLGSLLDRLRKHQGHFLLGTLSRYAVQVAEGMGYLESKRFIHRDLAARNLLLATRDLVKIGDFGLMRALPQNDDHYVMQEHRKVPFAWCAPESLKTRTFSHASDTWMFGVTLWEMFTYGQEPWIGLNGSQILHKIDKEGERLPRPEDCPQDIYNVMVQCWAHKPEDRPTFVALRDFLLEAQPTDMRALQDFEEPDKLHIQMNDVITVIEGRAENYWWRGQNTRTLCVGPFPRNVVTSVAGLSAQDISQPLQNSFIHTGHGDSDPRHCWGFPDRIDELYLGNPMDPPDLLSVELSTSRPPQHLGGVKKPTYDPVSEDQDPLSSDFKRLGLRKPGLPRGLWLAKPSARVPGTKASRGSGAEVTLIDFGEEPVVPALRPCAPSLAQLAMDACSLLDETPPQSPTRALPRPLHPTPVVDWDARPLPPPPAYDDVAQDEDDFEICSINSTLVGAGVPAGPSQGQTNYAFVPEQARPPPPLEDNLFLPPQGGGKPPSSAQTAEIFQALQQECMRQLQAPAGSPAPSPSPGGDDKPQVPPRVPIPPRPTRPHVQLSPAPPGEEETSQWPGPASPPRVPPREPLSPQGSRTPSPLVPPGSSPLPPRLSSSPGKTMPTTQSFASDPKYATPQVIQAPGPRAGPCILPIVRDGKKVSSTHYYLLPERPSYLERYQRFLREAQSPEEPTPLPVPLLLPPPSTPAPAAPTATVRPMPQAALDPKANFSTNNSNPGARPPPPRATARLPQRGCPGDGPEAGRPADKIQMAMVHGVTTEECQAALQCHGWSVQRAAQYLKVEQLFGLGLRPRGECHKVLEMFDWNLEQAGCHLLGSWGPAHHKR
MATK (human), sequence (P42679 whole entry, looked up): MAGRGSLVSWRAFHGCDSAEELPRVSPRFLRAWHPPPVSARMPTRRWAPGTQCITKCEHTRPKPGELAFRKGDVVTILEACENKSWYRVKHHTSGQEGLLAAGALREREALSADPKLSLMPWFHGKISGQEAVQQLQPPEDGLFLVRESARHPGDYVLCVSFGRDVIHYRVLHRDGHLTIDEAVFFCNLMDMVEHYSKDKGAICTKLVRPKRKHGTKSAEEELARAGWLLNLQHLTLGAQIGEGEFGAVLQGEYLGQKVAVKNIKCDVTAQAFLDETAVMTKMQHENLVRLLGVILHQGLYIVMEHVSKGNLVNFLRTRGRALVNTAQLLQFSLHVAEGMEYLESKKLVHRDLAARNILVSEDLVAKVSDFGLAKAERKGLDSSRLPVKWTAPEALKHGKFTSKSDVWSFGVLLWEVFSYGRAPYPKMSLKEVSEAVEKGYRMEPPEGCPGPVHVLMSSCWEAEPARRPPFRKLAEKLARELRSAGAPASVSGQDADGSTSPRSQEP
MAP3K9 (human), sequence (P80192 whole entry, looked up): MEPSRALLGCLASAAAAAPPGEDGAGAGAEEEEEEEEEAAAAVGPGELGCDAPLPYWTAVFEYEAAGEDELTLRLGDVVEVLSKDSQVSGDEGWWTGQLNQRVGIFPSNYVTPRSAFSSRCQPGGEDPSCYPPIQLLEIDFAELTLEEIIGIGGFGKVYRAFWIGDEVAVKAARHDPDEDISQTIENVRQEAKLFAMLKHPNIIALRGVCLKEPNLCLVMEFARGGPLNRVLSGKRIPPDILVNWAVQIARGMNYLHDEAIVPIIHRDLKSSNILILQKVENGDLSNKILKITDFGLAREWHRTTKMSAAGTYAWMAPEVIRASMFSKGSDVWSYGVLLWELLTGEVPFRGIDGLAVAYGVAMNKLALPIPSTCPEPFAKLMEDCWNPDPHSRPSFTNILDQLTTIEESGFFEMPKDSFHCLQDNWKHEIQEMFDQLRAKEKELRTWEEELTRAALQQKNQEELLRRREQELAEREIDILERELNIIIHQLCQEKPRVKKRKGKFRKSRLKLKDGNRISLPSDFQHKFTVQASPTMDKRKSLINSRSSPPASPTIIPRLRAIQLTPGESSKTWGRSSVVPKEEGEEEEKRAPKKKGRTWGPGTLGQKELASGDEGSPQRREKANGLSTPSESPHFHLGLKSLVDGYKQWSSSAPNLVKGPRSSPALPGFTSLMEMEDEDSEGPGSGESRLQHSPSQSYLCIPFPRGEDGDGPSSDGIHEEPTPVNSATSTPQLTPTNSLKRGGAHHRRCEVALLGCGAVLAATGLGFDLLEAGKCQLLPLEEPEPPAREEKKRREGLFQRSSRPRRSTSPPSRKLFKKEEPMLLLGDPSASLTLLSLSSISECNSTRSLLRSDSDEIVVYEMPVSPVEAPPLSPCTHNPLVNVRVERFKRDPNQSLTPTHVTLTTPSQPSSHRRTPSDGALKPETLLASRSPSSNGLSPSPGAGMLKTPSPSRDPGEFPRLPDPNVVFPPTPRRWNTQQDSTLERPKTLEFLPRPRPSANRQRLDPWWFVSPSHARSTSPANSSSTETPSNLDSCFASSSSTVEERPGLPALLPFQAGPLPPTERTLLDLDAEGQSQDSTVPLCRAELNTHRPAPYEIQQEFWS
MAP2K2 (human), sequence (P36507 whole entry, looked up): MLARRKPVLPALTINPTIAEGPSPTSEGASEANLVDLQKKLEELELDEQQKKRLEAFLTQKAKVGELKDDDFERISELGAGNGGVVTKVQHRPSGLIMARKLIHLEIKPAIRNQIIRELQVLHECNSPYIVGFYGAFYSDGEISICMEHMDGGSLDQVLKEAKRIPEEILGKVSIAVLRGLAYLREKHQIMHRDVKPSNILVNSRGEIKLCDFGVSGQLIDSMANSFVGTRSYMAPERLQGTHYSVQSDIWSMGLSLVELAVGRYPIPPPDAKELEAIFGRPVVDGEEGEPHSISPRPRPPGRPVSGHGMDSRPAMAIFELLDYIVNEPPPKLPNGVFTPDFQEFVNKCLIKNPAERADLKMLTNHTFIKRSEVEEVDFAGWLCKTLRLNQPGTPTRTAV
DAPK3 (human), sequence (O43293 whole entry, looked up): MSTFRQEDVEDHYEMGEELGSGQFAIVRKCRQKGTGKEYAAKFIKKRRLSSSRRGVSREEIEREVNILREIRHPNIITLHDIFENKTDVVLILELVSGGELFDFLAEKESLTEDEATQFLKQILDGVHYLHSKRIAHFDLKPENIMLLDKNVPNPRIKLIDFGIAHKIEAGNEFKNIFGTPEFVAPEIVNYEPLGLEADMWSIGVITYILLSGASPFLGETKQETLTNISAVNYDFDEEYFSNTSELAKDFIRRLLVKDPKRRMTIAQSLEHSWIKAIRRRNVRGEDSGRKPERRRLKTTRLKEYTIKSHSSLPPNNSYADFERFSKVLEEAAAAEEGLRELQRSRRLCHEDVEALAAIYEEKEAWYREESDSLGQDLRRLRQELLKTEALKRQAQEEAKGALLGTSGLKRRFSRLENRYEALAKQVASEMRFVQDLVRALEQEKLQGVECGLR

Which results are given for `COc1cc2ncnc(N3CCN(C(=O)Nc4ccc(Oc5ccccc5)cc4)CC3)c2cc1OC`?
residual activity (ADRBK2 (human)): 106%; residual activity (AURKA (human)): 79.6%; residual activity (BTK (human)): 87.8%; residual activity (CAMK4 (human)): 102%; residual activity (CDK5 CDK5R1 p35 (human)): 99.8%; residual activity (CHUK (human)): 96%; residual activity (CSK (human)): 81.3%; residual activity (DAPK3 (human)): 101%; residual activity (EPHB4 (human)): 99.3%; residual activity (GRK5 (human)): 82.2%; residual activity (GSG2 (human)): 93.2%; residual activity (HIPK1 (human)): 96.9%; residual activity (INSRR (human)): 96.8%; residual activity (ITK (human)): 88.1%; residual activity [1]: 96.5%; residual activity (MAP2K2 (human)): 99.3%; residual activity (MAP3K9 (human)): 100%; residual activity (MAPK1 (human)): 83.9%; residual activity (MAPK11 (human)): 99.6%; residual activity (MAPKAPK5 (human)): 118%; residual activity (MATK (human)): 96.8%; residual activity (NEK11 (human)): 107%; residual activity (NEK3 (human)): 100%; residual activity (NEK4 (human)): 94.4%; residual activity (NEK6 (human)): 103%; residual activity (NEK9 (human)): 103%; residual activity (PAK2 (human)): 104%; residual activity (PDGFRA (human)): 16.4%; residual activity (PKN1 (human)): 103%; residual activity (PRKCE (human)): 106%; residual activity (PRKG2 (human)): 97.5%; residual activity (RPS6KA5 KD2 (human)): 96.4%; residual activity (SIK2 (human)): 96%; residual activity (SRPK1 (human)): 97.5%; residual activity (TEC (human)): 101%; residual activity (TNK2 (human)): 77.1%; residual activity (TSSK2 (human)): 79.1%; residual activity [2]: 83.1%; residual activity (VRK1 (human)): 77.4%; residual activity (WEE1 (human)): 97.5%; residual activity (YES1 (human)): 106%

Which results are given for `O=C1NC(=O)C(c2cn(CCCO)c3ncccc23)=C1c1cnccn1`?
residual activity (ADRBK2 (human)): 99.9%; residual activity (AURKA (human)): 107%; residual activity (BTK (human)): 93.7%; residual activity (CAMK4 (human)): 95.6%; residual activity (CDK5 CDK5R1 p35 (human)): 73.9%; residual activity (CSK (human)): 86.9%; residual activity (DAPK3 (human)): 80.2%; residual activity (EPHB4 (human)): 95.2%; residual activity (GRK5 (human)): 116%; residual activity (GSG2 (human)): 91.9%; residual activity (HIPK1 (human)): 84.2%; residual activity (INSRR (human)): 93.2%; residual activity (ITK (human)): 84.7%; residual activity [1]: 117%; residual activity (MAP2K2 (human)): 90.3%; residual activity (MAP3K9 (human)): 85.5%; residual activity (MAPK1 (human)): 81.9%; residual activity (MAPK11 (human)): 105%; residual activity (MAPKAPK5 (human)): 98.6%; residual activity (MATK (human)): 95.5%; residual activity (NEK11 (human)): 108%; residual activity (NEK3 (human)): 97.5%; residual activity (NEK4 (human)): 85.1%; residual activity (NEK6 (human)): 94.2%; residual activity (NEK9 (human)): 93.4%; residual activity (PAK2 (human)): 105%; residual activity (PDGFRA (human)): 113%; residual activity (PDGFRB (human)): 102%; residual activity (PKN1 (human)): 97.8%; residual activity (PRKCE (human)): 102%; residual activity (PRKG2 (human)): 118%; residual activity (RPS6KA5 KD2 (human)): 73.9%; residual activity (SIK2 (human)): 101%; residual activity (SRPK1 (human)): 98%; residual activity (TEC (human)): 120%; residual activity (TNK2 (human)): 90.7%; residual activity (TSSK2 (human)): 119%; residual activity [2]: 96.9%; residual activity (VRK1 (human)): 86.4%; residual activity (WEE1 (human)): 96.2%; residual activity (YES1 (human)): 80.1%

What does the source list for `CN([C@@H](Cc1ccc(OS(=O)(=O)c2cccc3cnccc23)cc1)C(=O)N1CCN(c2ccccc2)CC1)S(=O)(=O)c1cccc2cnccc12`?
residual activity (ADRBK2 (human)): 113%; residual activity (AURKA (human)): 86.2%; residual activity (BTK (human)): 97.1%; residual activity (CAMK4 (human)): 102%; residual activity (CDK5 CDK5R1 p35 (human)): 99.5%; residual activity (CHUK (human)): 93.4%; residual activity (CSK (human)): 96.2%; residual activity (DAPK3 (human)): 106%; residual activity (GRK5 (human)): 95.6%; residual activity (GSG2 (human)): 94.7%; residual activity (HIPK1 (human)): 110%; residual activity (INSRR (human)): 94.9%; residual activity (ITK (human)): 99.4%; residual activity [1]: 108%; residual activity (MAP2K2 (human)): 119%; residual activity (MAP3K9 (human)): 104%; residual activity (MAPK1 (human)): 95.5%; residual activity (MAPK11 (human)): 98.9%; residual activity (MAPKAPK5 (human)): 97%; residual activity (MATK (human)): 94.8%; residual activity (NEK11 (human)): 103%; residual activity (NEK3 (human)): 99.8%; residual activity (NEK4 (human)): 99.5%; residual activity (NEK6 (human)): 101%; residual activity (NEK9 (human)): 97.6%; residual activity (PAK2 (human)): 99.1%; residual activity (PDGFRA (human)): 99.6%; residual activity (PDGFRB (human)): 104%; residual activity (PKN1 (human)): 105%; residual activity (PRKCE (human)): 99.5%; residual activity (PRKG2 (human)): 99.5%; residual activity (RPS6KA5 KD2 (human)): 100%; residual activity (SIK2 (human)): 108%; residual activity (SRPK1 (human)): 104%; residual activity (TEC (human)): 98.9%; residual activity (TNK2 (human)): 94.8%; residual activity (TSSK2 (human)): 105%; residual activity [2]: 110%; residual activity (VRK1 (human)): 92.1%; residual activity (WEE1 (human)): 87.7%; residual activity (YES1 (human)): 110%

`Nc1nccc(-c2c(-c3ccc(F)cc3)ncn2C2CCNCC2)n1` was tested. Which residual activity (ADRBK2 (human)) did it give?
The residual activity was 97.6%.

And the residual activity (AURKA (human))?
Its residual activity is 100%.

And the residual activity (BTK (human))?
The residual activity was 100%.

And the residual activity (CAMK4 (human))?
Its residual activity is 103%.

What about the residual activity (CDK5 CDK5R1 p35 (human)) of the same molecule?
Its residual activity is 102%.

And the residual activity (CHUK (human))?
The residual activity was 101%.

What about the residual activity (CSK (human)) of the same molecule?
Its residual activity is 90.8%.

And the residual activity (DAPK3 (human))?
The residual activity was 96.5%.

And the residual activity (EPHB4 (human))?
Its residual activity is 91.5%.

And the residual activity (GRK5 (human))?
The residual activity was 103%.

What about the residual activity (GSG2 (human)) of the same molecule?
The residual activity was 91.4%.

What about the residual activity (HIPK1 (human)) of the same molecule?
Its residual activity is 101%.

And the residual activity (INSRR (human))?
Its residual activity is 103%.

What about the residual activity (ITK (human)) of the same molecule?
Its residual activity is 90.5%.

And the residual activity [1]?
The residual activity was 104%.

What about the residual activity (MAP2K2 (human)) of the same molecule?
Its residual activity is 105%.

And the residual activity (MAP3K9 (human))?
Its residual activity is 94.5%.

What about the residual activity (MAPK1 (human)) of the same molecule?
The residual activity was 96.6%.

What about the residual activity (MAPKAPK5 (human)) of the same molecule?
Its residual activity is 94%.

What about the residual activity (MATK (human)) of the same molecule?
Its residual activity is 99.5%.

What about the residual activity (NEK11 (human)) of the same molecule?
The residual activity was 105%.

And the residual activity (NEK3 (human))?
The residual activity was 99%.

What about the residual activity (NEK4 (human)) of the same molecule?
The residual activity was 99.5%.

And the residual activity (NEK6 (human))?
The residual activity was 104%.

What about the residual activity (NEK9 (human)) of the same molecule?
Its residual activity is 100%.

And the residual activity (PAK2 (human))?
The residual activity was 76.9%.

And the residual activity (PDGFRA (human))?
Its residual activity is 95.8%.

And the residual activity (PDGFRB (human))?
The residual activity was 98.7%.

What about the residual activity (PKN1 (human)) of the same molecule?
The residual activity was 96.3%.

What about the residual activity (PRKCE (human)) of the same molecule?
Its residual activity is 105%.

What about the residual activity (PRKG2 (human)) of the same molecule?
The residual activity was 97.2%.

And the residual activity (RPS6KA5 KD2 (human))?
The residual activity was 97.9%.

And the residual activity (SIK2 (human))?
The residual activity was 64.7%.

What about the residual activity (SRPK1 (human)) of the same molecule?
Its residual activity is 103%.

What about the residual activity (TEC (human)) of the same molecule?
Its residual activity is 110%.

What about the residual activity (TNK2 (human)) of the same molecule?
The residual activity was 98%.

What about the residual activity (TSSK2 (human)) of the same molecule?
Its residual activity is 100%.

And the residual activity [2]?
The residual activity was 99.8%.

And the residual activity (VRK1 (human))?
Its residual activity is 83.4%.

And the residual activity (WEE1 (human))?
Its residual activity is 106%.

And the residual activity (YES1 (human))?
The residual activity was 85.3%.
